For eight compounds, MIC and IC50 results are on record in patent publication US6362181B1, “Isoquinolones” (Warner-Lambert Company, priority 1996, dated 2002).

One data set has as its system B. subtilis RB1. In words: Antibacterial assay, standard microtitration, MIC. It is filed as cell-based. To be noted: Bacillus subtilis, Gram positive, read-out: Minimum Inhibitory Concentrations, B. subtilis RB1. Summed up: (§1)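 Test agents were serially assayed in microtitre format against several Gram-positive and Gram-negative organisms, and growth inhibition was scored to give the lowest inhibitory concentration.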

A further data set relates to E. coli B90. In words: Antibacterial assay, standard microtitration, MIC. It is filed as cell-based. To be noted: Escherichia coli, Gram negative, read-out: Minimum Inhibitory Concentrations, E. coli B90. Put shortly: as §1
A further data set relates to E. coli MC4100. The data set is described as follows: Antibacterial assay, standard microtitration, MIC. The conditions noted are these: Escherichia coli, Gram negative, read-out: Minimum Inhibitory Concentrations, E. coli MC4100. It is filed as cell-based. Put shortly: as §1
For a further data set, the system named is S. aureus 29213. The data set is described as follows: Antibacterial assay, standard microtitration, MIC. It is filed as cell-based. The conditions noted are these: Staphylococcus aureus, Gram positive, read-out: Minimum Inhibitory Concentrations, S. aureus 29213. Put shortly: as §1
A further data set has as its system S. pyogenes C203. The data set is described as follows: Antibacterial assay, standard microtitration, MIC. It is filed as cell-based. To be noted: Streptococcus pyogenes, Gram positive, read-out: Minimum Inhibitory Concentrations, S. pyogenes C203. Put shortly: as §1
For a further data set, the target named is T1, E. coli gyrase (Escherichia coli, UniProt P0AES4+P0AES6).
T1 construct: purchased Lucent, Ltd., Leicester, UK
T1 sequence (P0AES4 whole entry, one chain of several): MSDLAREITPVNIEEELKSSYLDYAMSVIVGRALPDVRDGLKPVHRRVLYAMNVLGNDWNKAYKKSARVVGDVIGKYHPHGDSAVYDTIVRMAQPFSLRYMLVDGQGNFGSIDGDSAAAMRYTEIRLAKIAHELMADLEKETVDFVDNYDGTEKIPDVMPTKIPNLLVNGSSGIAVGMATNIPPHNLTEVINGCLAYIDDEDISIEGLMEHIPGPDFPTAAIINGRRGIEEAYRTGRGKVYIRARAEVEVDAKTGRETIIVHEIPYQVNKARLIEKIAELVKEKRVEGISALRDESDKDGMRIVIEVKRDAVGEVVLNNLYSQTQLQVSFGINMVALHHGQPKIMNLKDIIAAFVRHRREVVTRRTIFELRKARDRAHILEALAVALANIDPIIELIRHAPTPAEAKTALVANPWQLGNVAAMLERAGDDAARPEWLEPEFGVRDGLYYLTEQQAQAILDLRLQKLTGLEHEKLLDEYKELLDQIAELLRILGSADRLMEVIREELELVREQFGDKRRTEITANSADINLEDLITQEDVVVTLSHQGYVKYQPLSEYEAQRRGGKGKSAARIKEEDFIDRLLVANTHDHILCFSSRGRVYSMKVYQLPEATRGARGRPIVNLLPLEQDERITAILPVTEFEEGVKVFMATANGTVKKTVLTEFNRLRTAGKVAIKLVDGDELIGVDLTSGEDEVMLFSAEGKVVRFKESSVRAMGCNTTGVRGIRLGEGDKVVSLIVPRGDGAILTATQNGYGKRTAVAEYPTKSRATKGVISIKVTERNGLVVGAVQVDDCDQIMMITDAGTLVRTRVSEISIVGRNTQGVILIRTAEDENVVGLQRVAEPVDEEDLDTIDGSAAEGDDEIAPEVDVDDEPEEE
In words: DNA gyrase supercoiling inhibition assay. It is filed as biochemical. The procedure: The effects of test agents on the activity of DNA gyrase was determined by the supercoiling inhibition assay, following reaction conditions recommended by the enzyme supplier (Lucent, Ltd., Leicester, UK), as follows. Reactions were performed in buffer G (35 mM Tris-HCL (pH 7.5), 24 mM KCl, 4 mM MgCl2, 2 mM DTT, 1.8 mM spermidine, 1 mM ATP, 0.1 mg/mL bovine serum albumin). 0.25 μg of relaxed plasmid pBR322 (Lucent, Ltd., Leicester, UK) was reacted with 1 U E. coli gyrase (Lucent, Ltd., Leicester, UK), in the absence or presence of drugs, for 30 minutes at 37° C. Reactions were stopped by the addition of SDS and proteinase K to respective final concentrations of 1% and 0.5 mg/mL. After an additional 30 minutes at 37° C., one-tenth volume of 10×loading buffer (0.3% bromophenol blue, 16% Ficoll, 10 mM Na2HPO4) was added, and reactions were loaded onto agarose gels and electrophoresed as described above for intercalation assays. The concentration of drug inhibiting 50% of the supercoiling activity of DNA gyrase is given as an IC50 and recorded in Table 2.

The next data set addresses T2, E. coli topoisomerase IV (Escherichia coli, UniProt P0AFI2+P20083).
T2 construct: made in house; host or cells: E. coli overexpressing strains
In words: Topoisomerase IV k-DNA decatenation assay. It is filed as biochemical. The procedure:
Topoisomerase IV was purified from E. coli overexpressing strains and the compounds were assayed according to literature conditions (Journal of Biological Chemistry, 1993;268(32):24481). The k-DNA decatenation assay was used. Briefly, reactions were performed in buffer R (40 mM Tris-HCl (pH 7.5), 6 mM MgCl2, 10 mM DTT, 100 mM potassium glutamate, 40 μM ATP, 50 μg/mL bovine serum albumin, 10 mM NaCl). 0.2 μg of kinetoplast DNA (k-DNA; TopoGen, Columbus, Ohio) was incubated with 5 ng of E. coli topoisomerase IV in the presence or absence of test compounds for 10 minutes at 37° C. Subsequently, one-tenth volume of 10×gel loading buffer (0.3% bromophenol blue, 16% Ficoll, 10 mM Na2HPO4) was added, and samples were loaded onto horizontal 0.8% agarose gels prepared with TBE buffer and containing 0.05 μg/mL of ethidium bromide. Electrophoresis was at 70 V for 2 to 4 hours. Gels were then examined by exposure to UV light. The concentration of drug inhibiting 50% of the decantenating activity of Topoisomerase IV is given as an IC50 and recorded in Table 2.

A short description of data set [1]: Mammalian cell cytotoxicity, colony formation. It is filed as cell-based. The conditions noted are these: Chinese hamster, drug for 3 hours at 37° C., colony formation after 5 days, read-out: 50% Cytotoxic Conc. in CHO cells. The method, then:
Mammalian Cell Cytotoxicity
The cells were grown overnight and treated with drug for 3 hours at 37° C., at which time the compound containing media was replaced with fresh media. The cells were then incubated for 5 days and examined for colony formation.

For a further data set, the target named is relaxed plasmid pBR322. In words: DNA intercalation/binding assay. To be noted: pBR322 with calf thymus topoisomerase I, 30 minutes at 37° C.; read-out: Drug Concentration causing 50% Intercalation of DNA. The method, then:
Compounds of the present invention were evaluated for their ability to intercalate/bind to DNA, using the procedure described in Nucleic Acids Research, 1987;15(15):6713. Specifically, 0.2 μg of relaxed plasmid pBR322 (Lucent, Ltd., Leicester, UK) was treated with 2 U of calf thymus topoisomerase I (Gibco/BRL, Gaithersburg, Md.) in buffer I (10 mM Tris-HCl (Ph 7.5), 50 mM KCl, 5 mM MgCl2, 1 mM Na2EDTA, 15 μg/mL bovine serum albumin) in the presence or absence of test compounds. Reaction were incubated for 30 minutes at 37° C.; volumes were typically 30 μL. Reactions were terminated by the addition of sodium dodecylsulfate (SDS) to 1% and proteinase K to 0.5 mg/mL final concentrations. After an additional 30 minutes at 37° C., one-tenth volume of 10×concentrated loading buffer (0.3% bromophenol blue, 16% Ficoll, 10 mM Na2HPO4) was added, and samples were loaded onto horizontal 0.8% agarose gels prepared in TAE buffer. Electrophoresis was at 22 V for 14 hours. Gels were then stained by soaking for 1.5 hours in deionized water containing 0.2 μg/mL of ethidium bromide, followed by destaining in deionized water for an additional 1.5 hours. Gels were examined and photographed following exposure to UV light. The concentration of the drug which induced a 50% change in the DNA by intercalation is represented by an intercalation IC50 and is recorded in Table 4.

The next data set relates to E. coli To1C. The data set is described as follows: Antibacterial assay, standard microtitration, MIC. It is filed as cell-based. The conditions noted are these: Escherichia coli, TO1C, read-out: Minimum Inhibitory Concentrations, E. coli To1C. Summed up: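 Antibacterial activity is measured in microtitre plates against both Gram classes of bacteria, with MIC taken as the endpoint.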

[2] abbreviates: supercoiling of relaxed pBR322, 30 minutes at 37° C., read-out: DNA Gyrase IC50.
[3] abbreviates: k-DNA decatenation, 10 minutes at 37° C., read-out: Top IV IC50.

pIC50: −log10 of the molar value. ≈ marks a conversion by molar mass, not a printed value. Like-named read-outs stand apart in the source and are kept apart here.

T2 sequence (P0AFI2 whole entry): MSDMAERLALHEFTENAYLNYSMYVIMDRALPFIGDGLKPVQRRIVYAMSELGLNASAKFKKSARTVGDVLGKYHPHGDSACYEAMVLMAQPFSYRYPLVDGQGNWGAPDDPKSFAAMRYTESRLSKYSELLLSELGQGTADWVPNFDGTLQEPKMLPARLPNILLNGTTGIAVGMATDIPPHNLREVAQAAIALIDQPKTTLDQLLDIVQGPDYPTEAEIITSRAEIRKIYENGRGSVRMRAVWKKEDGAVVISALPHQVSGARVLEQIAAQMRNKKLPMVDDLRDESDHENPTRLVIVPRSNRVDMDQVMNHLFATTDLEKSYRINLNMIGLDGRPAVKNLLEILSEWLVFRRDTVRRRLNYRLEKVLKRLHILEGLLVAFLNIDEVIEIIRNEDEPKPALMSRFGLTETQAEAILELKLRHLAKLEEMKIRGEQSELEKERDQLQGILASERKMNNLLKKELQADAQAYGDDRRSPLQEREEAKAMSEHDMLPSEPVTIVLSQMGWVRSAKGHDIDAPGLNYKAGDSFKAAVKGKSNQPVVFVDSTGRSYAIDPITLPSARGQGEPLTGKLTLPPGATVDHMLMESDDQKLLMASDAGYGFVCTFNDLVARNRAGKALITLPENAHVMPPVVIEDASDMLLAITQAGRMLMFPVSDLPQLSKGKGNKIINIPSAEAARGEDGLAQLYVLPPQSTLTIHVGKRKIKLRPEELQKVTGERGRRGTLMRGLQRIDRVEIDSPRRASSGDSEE
T2 sequence (P20083 whole entry): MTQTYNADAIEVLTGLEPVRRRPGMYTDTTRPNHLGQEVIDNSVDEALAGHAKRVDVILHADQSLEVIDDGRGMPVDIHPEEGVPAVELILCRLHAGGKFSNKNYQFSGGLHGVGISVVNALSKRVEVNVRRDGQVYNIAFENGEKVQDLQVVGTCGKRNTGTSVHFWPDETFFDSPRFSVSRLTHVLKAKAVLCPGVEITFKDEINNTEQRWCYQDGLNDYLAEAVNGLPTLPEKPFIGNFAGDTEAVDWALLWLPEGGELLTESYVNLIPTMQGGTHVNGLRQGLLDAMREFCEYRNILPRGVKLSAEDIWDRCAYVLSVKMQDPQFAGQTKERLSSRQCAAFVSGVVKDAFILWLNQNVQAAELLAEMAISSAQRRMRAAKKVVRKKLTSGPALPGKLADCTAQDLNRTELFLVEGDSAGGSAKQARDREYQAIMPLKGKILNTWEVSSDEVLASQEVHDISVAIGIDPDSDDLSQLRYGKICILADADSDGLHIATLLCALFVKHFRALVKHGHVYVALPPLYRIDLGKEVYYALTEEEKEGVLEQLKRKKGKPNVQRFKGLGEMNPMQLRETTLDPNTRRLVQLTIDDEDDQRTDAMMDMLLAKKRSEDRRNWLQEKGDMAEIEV

`Nc1cc2c3c(cccc3c1)C(=O)N(O)C2=O` [Example 8, 5-Amino-2-hydroxy-benzo[de]isoquinoline-1,3-dione]: the MIC was 8 µg/mL (≈ 35.1 µM) in the data set with B. subtilis RB1; 4 µg/mL (≈ 17.5 µM) in the data set with E. coli B90; 8 µg/mL (≈ 35.1 µM) with E. coli MC4100; 32 µg/mL (≈ 140 µM) in the data set with S. aureus 29213; more than 64 µg/mL with S. pyogenes C203. Further, the pIC50 on E. coli gyrase (setting [2]) was 5.15; at E. coli topoisomerase IV (setting [3]), 4.19; at relaxed plasmid pBR322, less than 4.00. In addition, the IC50 at 3 h in [1] (Chinese hamster cells) was more than 500 µM.
For `COc1cc2c3c(cccc3c1)C(=O)N(O)C2=O` [Example 13, 2-Hydroxy-5-methoxy-benzo[de]isoquinoline-1,3-dione], the MIC is 1 µg/mL (≈ 4.11 µM) in the data set with B. subtilis RB1; 0.13 µg/mL (≈ 0.534 µM) in the data set on E. coli B90; 0.5 µg/mL (≈ 2.06 µM) in the data set on E. coli MC4100; 8 µg/mL (≈ 32.9 µM) in the data set with S. aureus 29213; more than 64 µg/mL in the data set with S. pyogenes C203. Also, the pIC50 at E. coli gyrase (setting [2]) is 4.96; at E. coli topoisomerase IV (setting [3]) it was 4.54; on relaxed plasmid pBR322, less than 4.00. In addition, the IC50 at 3 h in data set [1] (Chinese hamster cells) is more than 250 µM.
Take `CSc1ccc2c3c(cccc13)C(=O)N(O)C2=O` [Example 16, 2-Hydroxy-6-methylthio-benzo[de]isoquinoline-1,3-dione]: the MIC in the data set on B. subtilis RB1 is 2 µg/mL (≈ 7.71 µM); in the data set with E. coli B90 it was 1 µg/mL (≈ 3.86 µM); in the data set with E. coli MC4100, more than 64 µg/mL; with E. coli To1C, 1 µg/mL (≈ 3.86 µM); in the data set on S. aureus 29213 it was 8 µg/mL (≈ 30.9 µM); in the data set with S. pyogenes C203 it was 64 µg/mL (≈ 247 µM). Moreover, the IC50 at 3 h in data set [1] (Chinese hamster cells) was more than 250 µM. The pIC50 at relaxed plasmid pBR322 is less than 4.00.
`Nc1cc2c3c(cccc3c1Cl)C(=O)N(O)C2=O` [Example 28, 5-Amino-6-chloro-2-hydroxy-benzo[de]isoquinoline-1,3-dione]: the MIC in the data set with B. subtilis RB1 is 4 µg/mL (≈ 15.2 µM); in the data set with E. coli B90, 1 µg/mL (≈ 3.81 µM); in the data set on E. coli MC4100, 16 µg/mL (≈ 60.9 µM); with E. coli To1C, 1 µg/mL (≈ 3.81 µM); in the data set on S. aureus 29213, 4 µg/mL (≈ 15.2 µM); with S. pyogenes C203, more than 64 µg/mL. For the same compound, the figures for the pIC50 on E. coli gyrase (setting [2]), at E. coli topoisomerase IV (setting [3]) and on relaxed plasmid pBR322 were 4.70, 5.15 and less than 4.00, respectively. Moreover, the IC50 at 3 h in [1] (Chinese hamster cells) is more than 250 µM.
For `COc1cc2c3c(cccc3c1Br)C(=O)N(O)C2=O` [Example 32, 6-Bromo-2-hydroxy-5-methoxy-benzo[de]isoquinoline-1,3-dione], the MIC is 4 µg/mL (≈ 12.4 µM) in the data set on B. subtilis RB1; 8 µg/mL (≈ 24.8 µM) with E. coli B90; more than 64 µg/mL with E. coli MC4100; 4 µg/mL (≈ 12.4 µM) with E. coli To1C; 8 µg/mL (≈ 24.8 µM) in the data set with S. aureus 29213; more than 64 µg/mL in the data set with S. pyogenes C203. Also, the IC50 at 3 h in [1] (Chinese hamster cells) is more than 250 µM. In addition, at relaxed plasmid pBR322, the pIC50 was less than 4.00.
For `O=C1c2cc([N+](=O)[O-])cc3cc([N+](=O)[O-])cc(c23)C(=O)N1O` [Example 42, 2-Hydroxy-5,8-dinitro-benzo[de]isoquinoline-1,3-dione], the MIC with B. subtilis RB1 came to 16 µg/mL (≈ 52.8 µM); with E. coli B90, 1 µg/mL (≈ 3.3 µM); in the data set on E. coli MC4100 it was 4 µg/mL (≈ 13.2 µM); with S. aureus 29213, 8 µg/mL (≈ 26.4 µM); in the data set on S. pyogenes C203, 32 µg/mL (≈ 106 µM). The pIC50 against E. coli gyrase is 4.70; on E. coli topoisomerase IV, 4.70; at relaxed plasmid pBR322, less than 4.00. Moreover, in data set [1], the IC50 at 3 h was found to be 160 µM.
On to `CN1CCN(c2c(Br)cc3c4c(cccc24)C(=O)N(O)C3=O)CC1` [Example 50, 5-Bromo-2-hydroxy-6-(4-methylpiperazin-1-yl)-benzo[de]isoquinoline-1,3-dione], for which the MIC with B. subtilis RB1 was 4 µg/mL (≈ 10.3 µM); with E. coli B90, 2 µg/mL (≈ 5.13 µM); in the data set on E. coli MC4100 it was 32 µg/mL (≈ 82 µM); with E. coli To1C, 2 µg/mL (≈ 5.13 µM); with S. aureus 29213, 8 µg/mL (≈ 20.5 µM); in the data set with S. pyogenes C203, 8 µg/mL (≈ 20.5 µM). In addition, the pIC50 on E. coli gyrase (setting [2]) is 4.51; at E. coli topoisomerase IV (setting [3]), 4.01. Besides, the IC50 at 3 h in [1] (Chinese hamster cells) was 88 µM.
As for `NC1CCN(c2ccc3c4c(cccc24)C(=O)N(O)C3=O)C1` (stereo not shown) [Example 62, 6-(3-Amino-pyrrolidin-1-yl)-2-hydroy-benzo[de]isoquinoline-1,3-dione], the MIC is 64 µg/mL (≈ 215 µM) in the data set on B. subtilis RB1; 32 µg/mL (≈ 108 µM) in the data set on E. coli B90; more than 64 µg/mL with E. coli MC4100; 8 µg/mL (≈ 26.9 µM) with E. coli To1C; more than 64 µg/mL in the data set on S. aureus 29213; 4 µg/mL (≈ 13.5 µM) in the data set on S. pyogenes C203. Also, at E. coli gyrase (setting [2]), the pIC50 was 4.74. Also, in data set [1] (Chinese hamster cells), the IC50 at 3 h stood at 177 µM.
